Assay results as given in PubChem BioAssay (NCI).
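Where inhibition never reached the appropriate level, the endpoint shown equals the highest concentration tested. Otherwise, values were interpolated linearly from a five-concentration, 48-hour dose response in 96-well plates. At the TGI there is no net growth.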

Columns and labels:
Assay in all cases: NCI-60 cell line screen, 48 h
[1] = system: RPMI-8226 leukemia
[2] = system: M14 melanoma
[3] = system: HT29 colon
[4] = system: HL-60(TB) leukemia
[5] = system: SK-MEL-5 melanoma
[6] = system: 786-0 renal
[7] = system: A498 renal
[8] = system: MALME-3M melanoma
[9] = system: NCI-H522 lung
[10] = system: OVCAR-5 ovarian
[11] = system: SNB-75 CNS
[12] = system: SF-268 CNS
[13] = system: MOLT-4 leukemia
[14] = system: SNB-78 CNS
[15] = system: HOP-62 NSCLC
[16] = system: UACC-62 melanoma
[17] = system: OVCAR-4 ovarian
[18] = system: NCI-H23 lung
[19] = system: SK-MEL-2 melanoma
[20] = system: RXF-631 renal
[21] = system: HOP-18 NSCLC
[22] = system: LOX IMVI melanoma
[23] = system: CCRF-CEM leukemia
[24] = system: LXFL 529 NSCLC
[25] = system: A549 NSCLC
[26] = system: UO-31 renal
[27] = system: NCI-H460 lung
[28] = system: SF-539 CNS
[29] = system: ACHN renal
[30] = system: SK-OV-3 ovarian
[31] = system: CAKI-1 renal
[32] = system: SR leukemia
[33] = system: SF-295 CNS
[34] = system: COLO 205 colon
[35] = system: HOP-92 NSCLC
[36] = system: SN12C renal
[37] = system: M19-MEL melanoma
[38] = system: UACC-257 melanoma
[39] = system: KM12 colon
[40] = system: SNB-19 CNS
[41] = system: OVCAR-8 ovarian
[42] = system: SW-620 colon
[43] = system: OVCAR-3 ovarian
[44] = system: U251 CNS
[45] = system: RXF 393 renal
[46] = system: SK-MEL-28 melanoma
[47] = system: TK-10 renal
[48] = system: NCI-H226 lung
[49] = system: DMS 114 small cell lung
[50] = system: KM20L2 colon
[51] = system: DLD-1 colon
[52] = system: HCT-116 colon
[53] = system: HCT-15 colon
[54] = system: HCC-2998 colon
[55] = system: XF 498 CNS
[56] = system: IGROV1 ovarian
[57] = system: EKVX NSCLC
[58] = system: DMS 273 small cell lung
[59] = system: K-562 leukemia

For CC(=O)Nc1ccc(C2C(C(=O)Nc3ccccc3C)=C(C)NC(C)=C2C(=O)Nc2ccccc2C)cc1, the TGI [1] was > 100 µM, the TGI [2] was > 100 µM and the TGI [3] was > 100 µM. The TGI [4] was > 100 µM, the TGI [5] was > 100 µM and the TGI [6] was > 100 µM. The TGI [7] was > 100 µM, the TGI [8] was > 100 µM and the TGI [9] was > 100 µM. The TGI [10] was > 100 µM, the TGI [11] was > 100 µM and the TGI [12] was > 100 µM. The TGI [13] was > 26.2 µM, the TGI [14] was > 100 µM and the TGI [15] was > 100 µM. For the same molecule, the TGI [16] was > 100 µM, the TGI [17] was > 100 µM and the TGI [18] was > 100 µM. For the same molecule, the TGI [19] was > 100 µM, the TGI [20] was > 100 µM and the TGI [21] was > 100 µM. For the same molecule, the TGI [22] was > 100 µM, the TGI [23] was > 100 µM and the TGI [24] was > 100 µM. The TGI [25] was > 100 µM, the TGI [26] was > 100 µM and the TGI [27] was > 100 µM. For the same molecule, the TGI [28] was > 100 µM, the TGI [29] was > 100 µM and the TGI [30] was > 100 µM. For the same molecule, the TGI [31] was > 100 µM, the TGI [32] was > 100 µM and the TGI [33] was > 100 µM. For the same molecule, the TGI [34] was > 100 µM, the TGI [35] was > 100 µM and the TGI [36] was > 100 µM. The TGI [37] was > 100 µM, the TGI [38] was > 100 µM and the TGI [39] was > 31.6 µM. For the same molecule, the TGI [40] was > 100 µM, the TGI [41] was > 100 µM and the TGI [42] was > 100 µM. For the same molecule, the TGI [43] was > 100 µM, the TGI [44] was > 100 µM and the TGI [45] was > 100 µM. For the same molecule, the TGI [46] was > 100 µM, the TGI [47] was > 100 µM and the TGI [48] was > 100 µM. For the same molecule, the TGI [49] was > 100 µM, the TGI [50] was > 100 µM and the TGI [51] was > 100 µM. The TGI [52] was > 100 µM, the TGI [53] was > 100 µM and the TGI [54] was > 100 µM. For the same molecule, the TGI [55] was > 100 µM, the TGI [56] was > 100 µM and the TGI [57] was > 100 µM. The TGI [58] was > 100 µM and the TGI [59] was > 100 µM.

For Brc1ccc2c(C3CN[C@@H](c4c[nH]c5cc(Br)ccc45)CN3)c[nH]c2c1 (stereo partly specified), the TGI [1] was 5.16 µM, the TGI [2] was 9.6 µM and the TGI [3] was 9.52 µM. For the same molecule, the TGI [4] was 7.72 µM, the TGI [5] was 14.3 µM and the TGI [6] was 9.91 µM. For the same molecule, the TGI [7] was 9.36 µM, the TGI [8] was 26.5 µM and the TGI [9] was 5.6 µM. For the same molecule, the TGI [10] was 10.1 µM, the TGI [11] was 31.7 µM and the TGI [12] was 19.1 µM. The TGI [13] was 11 µM, the TGI [14] was 22.7 µM and the TGI [15] was 16.2 µM. The TGI [16] was 17.5 µM, the TGI [17] was 13.6 µM and the TGI [18] was 7.13 µM. It also gave a TGI [19] of 10.9 µM, a TGI [20] of 12.9 µM and a TGI [21] of 24.6 µM. The TGI [22] was 9.03 µM, the TGI [23] was 11.7 µM and the TGI [24] was 6.86 µM. It also gave a TGI [25] of 9.02 µM, a TGI [26] of 18.1 µM and a TGI [27] of 3.85 µM. The TGI [28] was 12.9 µM, the TGI [29] was 12.6 µM and the TGI [30] was 16.6 µM. For the same molecule, the TGI [31] was 25.9 µM, the TGI [32] was 3.08 µM and the TGI [33] was 12.4 µM. For the same molecule, the TGI [34] was 3.49 µM, the TGI [35] was 9.29 µM and the TGI [36] was 17.7 µM. The TGI [37] was 19.4 µM, the TGI [38] was 23.4 µM and the TGI [39] was 3.47 µM. The TGI [40] was 22.4 µM, the TGI [41] was 15.9 µM and the TGI [42] was 9.05 µM. For the same molecule, the TGI [43] was 19.7 µM, the TGI [44] was 18.5 µM and the TGI [45] was 4.41 µM. The TGI [46] was 23.8 µM, the TGI [47] was 20.8 µM and the TGI [48] was 7.96 µM. The TGI [49] was 5.14 µM, the TGI [50] was 4.96 µM and the TGI [51] was 12.8 µM. The TGI [52] was 3.55 µM, the TGI [53] was 13.6 µM and the TGI [54] was 5.43 µM. The TGI [55] was 18.7 µM, the TGI [56] was 23.6 µM and the TGI [57] was 21.9 µM. For the same molecule, the TGI [58] was 5.13 µM and the TGI [59] was 9.4 µM.

In the case of C[Si](C)(C)/N=C1\N2C(=NC1(C(F)(F)F)C(F)(F)F)Sc1ccccc12, the TGI [1] is reported as > 50 µM, the TGI [2] is reported as > 50 µM and the TGI [3] is reported as > 50 µM. The TGI [4] was > 50 µM, the TGI [5] was > 50 µM and the TGI [6] was > 50 µM. The TGI [7] was > 50 µM, the TGI [8] was > 50 µM and the TGI [9] was > 50 µM. For the same molecule, the TGI [10] was > 50 µM, the TGI [11] was > 50 µM and the TGI [12] was > 50 µM. The TGI [13] was > 50 µM, the TGI [14] was > 50 µM and the TGI [15] was > 50 µM. The TGI [16] was > 50 µM, the TGI [17] was > 50 µM and the TGI [18] was > 50 µM. The TGI [19] was > 50 µM, the TGI [20] was > 50 µM and the TGI [21] was > 50 µM. For the same molecule, the TGI [22] was > 50 µM, the TGI [23] was > 50 µM and the TGI [24] was > 50 µM. For the same molecule, the TGI [25] was > 50 µM, the TGI [26] was > 50 µM and the TGI [27] was > 50 µM. For the same molecule, the TGI [28] was > 50 µM, the TGI [29] was > 50 µM and the TGI [30] was > 50 µM. The TGI [31] was > 50 µM, the TGI [32] was > 50 µM and the TGI [33] was > 50 µM. The TGI [34] was > 50 µM, the TGI [35] was > 50 µM and the TGI [36] was > 50 µM. For the same molecule, the TGI [37] was > 50 µM, the TGI [38] was > 50 µM and the TGI [39] was > 50 µM. The TGI [40] was > 50 µM, the TGI [41] was > 50 µM and the TGI [42] was > 50 µM. For the same molecule, the TGI [43] was > 50 µM, the TGI [44] was > 50 µM and the TGI [45] was > 50 µM. For the same molecule, the TGI [47] was > 50 µM, the TGI [48] was > 50 µM and the TGI [49] was > 50 µM. The TGI [50] was > 50 µM, the TGI [51] was > 50 µM and the TGI [52] was > 50 µM. The TGI [53] was > 50 µM, the TGI [54] was > 50 µM and the TGI [55] was > 50 µM. For the same molecule, the TGI [56] was > 50 µM, the TGI [57] was > 50 µM and the TGI [58] was > 50 µM. For the same molecule, the TGI [59] was > 50 µM.
